From US20130071521A1, “REBAUDIOSIDE D SWEETENERS AND FOOD PRODUCTS SWEETENED WITH REBAUDIOSIDE D” (PEPSICO, INC., priority 2007, published 2013)

Assays:
Water solubility = type: physicochemical; settings: commercially available Reb D
Description: The water solubility of commercially available Reb D is low, thus, according to certain embodiments of the invention, rebaudioside D is provided as a supersaturated solution of rebaudioside D in the beverage products disclosed herein. As used herein, the term “saturated” refers to the point of maximum concentration at which a solution of a substance (e.g., a rebaudioside D solution) can dissolve no more of that substance. The saturation point of a substance depends on the temperature of the liquid the substance is to be dissolved in, as well as the chemical natures of the liquid and the substance involved (e.g., the water and/or the rebaudioside D). As used herein, the term “supersaturated” refers to a solution that contains more of a dissolved material (e.g., rebaudioside D) than a saturated solution. Supersaturated solutions are typically achieved when one or more conditions of a saturated solution is changed, such as, e.g., temperature, volume (e.g., by evaporation), pressure or the like.

[1] = commonly accepted potency figures; cited from earlier work
[2] = Sweetness intensity and quality of taste of steviol glycosides reported by Kinghorn (2002); settings: from the Kinghorn values
Description: In the book “Stevia, The genus Stevia”, edited by A. Douglas Kinghorn (2002), the structural differences, sweetness intensity and quality of taste between the steviol glycosides is reported on page 138. The relative quality of taste, as compared to stevioside, (i.e., stevioside is rated 0) of rebaudioside D was rated higher (+3) than rebaudioside A was rated (+2). Particular taste attributes that contributed to the quality of taste, however, were not individually rated. The sweetness of rebaudioside A was reported to have a value of 242, whereas the sweetness of rebaudioside D was reported to have a value of 221.

[3] = test system: sensory panel of twelve testers; experiment: Sensory panel evaluation of initial sweetness characteristics of sweeteners in water (Example 1); type: in vivo; settings: for behavior as compared to sucrose, all concentrations plotted: FIG. 12; for initial sweetness perception: FIG. 2/FIG. 4; for initial bitterness perception: FIG. 3/FIG. 5
Description: Sensory evaluations of different sweeteners at various concentrations were performed to provide comparative analysis of organoleptic characteristics of aqueous solutions of rebaudioside D, versus other sweeteners. The rebaudioside D was a stevia extract having a purity of at least 93% by weight rebaudioside D (Reb D). Initial sweetness characteristics of three concentrations of such Reb D in water were determined by a sensory panel of twelve testers. Sensory panels are well known to those of skill in the art, and comprise testers trained to evaluate the organoleptic attributes of comestibles. Typically, sensory panelists have been screened for their taste acuity and extensively trained in the use of standardized vocabulary to describe the appearance, aroma, flavor, mouthfeel and aftertaste of a wide variety of products, as well as scaling techniques to quantify the attributes. The numerical data generated by the sensory panel testers were then analyzed for their statistical significance.
The water employed in the tests of Example 1 comprised purified water as described in detail above, and having a pH of 7.0. The initial sweetness characteristics of 1200 parts per million (ppm) Reb D in water were compared to the initial sweetness characteristics of aqueous solutions of each of 1200 ppm rebaudioside A (Reb A), sucrose, aspartame and sucralose. The rebaudioside A was a stevia extract comprising a purity of 95% by weight rebaudioside A (PureCircle USA Inc., Oak Brook, Ill.). The specific attributes tested by the sensory panel comprised sweetness, thickness, astringency, bitterness, numbing, cooling and licorice.
The initial sweetness characteristics of other concentrations of rebaudioside D in water were also tested and compared to the same concentrations of rebaudioside A in water. […] FIGS. 2 through 5 illustrate the differences in the characteristics of sweetness and bitterness attributes between Reb D and Reb A.

[4] = test system: sensory panel of twelve testers; experiment: Sensory panel evaluation in water, noncarbonated beverage base and carbonated beverage base (Example 2); type: in vivo; set-up: Sweetness / Bitterness: scale not given here; settings: for interaction between the sweetener and the three beverage bases (initial sweetness attribute plots): water, noncarbonated and carbonated beverage base; for Reb D Compared to Reb A % Ratio, Bitterness / Reb D Compared to Reb A % Ratio, Sweetness: ratio of Reb D to Reb A
Description: Potential beverage base effects on the initial sweetness perception of rebaudioside D were investigated by performing tests of three concentrations of rebaudioside D (Reb D) in water, in a noncarbonated beverage base, and in a carbonated beverage base, by a sensory panel of twelve testers. The numerical data generated by the sensory panel testers were then analyzed for their statistical significance.
The water employed for the tests of this Example comprised the characteristics as described in Example 1. The noncarbonated beverage base comprised purified water, and citric acid in an amount sufficient to decrease the pH of the noncarbonated beverage base to 3.1. The carbonated beverage base comprised purified water, carbon dioxide, and citric acid in an amount sufficient to decrease the pH of the noncarbonated beverage base to about 3.1. The initial sweetness characteristics of 606 parts per million (ppm) Reb D in water were compared to the initial sweetness characteristics of 606 ppm Reb D in noncarbonated beverage base and 606 ppm Reb D in carbonated beverage base.
The specific attributes tested by the sensory panel comprised sweetness, thickness, astringency, bitterness, numbing, cooling, licorice, burn/tingle and mouthcoat.

[5] = Kinghorn (2002) page 138, cited from earlier work
[6] = 360 ppm, averaged across all three beverage bases
[7] = 606 ppm, averaged across all three beverage bases
[8] = 1200 ppm, averaged across all three beverage bases
[9] = CSD (carbonated beverage base), 360 ppm
[10] = CSD (carbonated beverage base), 606 ppm
[11] = High Level, 1200 ppm, averaged across all three beverage bases
[12] = Low-Medium Level, 360 ppm, averaged across all three beverage bases
[13] = Medium Level, 606 ppm, averaged across all three beverage bases
[14] = NCB (noncarbonated beverage base), 360 ppm
[15] = NCB (noncarbonated beverage base), 606 ppm

Structure (SMILES): C=C1C[C@@]23CC[C@H]4[C@@](C)(CCC[C@@]4(C)C(=O)O[C@@H]4O[C@H](CO)[C@@H](O)[C@H](O)[C@H]4O[C@@H]4O[C@H](CO)[C@@H](O)[C@H](O)[C@H]4O)[C@@H]2CC[C@]1(O[C@@H]1O[C@H](CO)[C@@H](O)[C@H](O[C@@H]2O[C@H](CO)[C@@H](O)[C@H](O)[C@H]2O)[C@H]1O[C@@H]1O[C@H](CO)[C@@H](O)[C@H](O)[C@H]1O)C3 [Reb D, rebaudioside D]
- water solubility (Water solubility): low
- potency, times as sweet as sugar [1]: 150-300 times as sweet as sugar
- sweetness less than the sweetness of rebaudioside A [2]: approximately 10%
- overall attributes versus Reb A ([3]; 360, 606 and 1200 ppm in water, FIG. 8): less bitterness and astringency
- behavior as compared to sucrose, all concentrations plotted ([3]; 360 ppm and 606 ppm Reb D in water): behaved more like sucrose than did any of the concentrations of Reb A
- attributes of lower levels versus the same levels of Reb A ([3]; 360 ppm and 606 ppm in water, FIG. 8): less bitter, astringent, numbing and licorice
- bitterness perception value less than same concentration of Reb A ([3]; 360 ppm in water): about 30
- initial sweetness perception ([3]; 360 ppm in water): about 62
- initial bitterness perception ([3]; 360 ppm in water): about 8
- initial sweetness attributes versus the same concentration of Reb A ([3]; 360 ppm in water, FIG. 7): significantly less astringency, bitterness and numbing
- relative sweet properties (continuum regular sweet to artificial sweet-like) versus same concentration of Reb A ([3]; 360 ppm in water, FIG. 11): behaved more like sucrose
- bitterness perception value less than same concentration of Reb A ([3]; 600 ppm in water): about 47
- initial sweetness attributes versus the same concentration of Reb A ([3]; 606 ppm in water, FIG. 6): significantly less astringency, bitterness and numbing
- relative sweet properties (continuum regular sweet to artificial sweet-like) versus same concentration of Reb A ([3]; 606 ppm in water, FIG. 10): behaved more like sucrose
- behavior as compared to sucrose, all concentrations plotted ([3]; 1200 ppm Reb D in water): behaved more like sucrose than did either 606 ppm Reb A or 1200 ppm Reb A
- bitterness perception value less than same concentration of Reb A ([3]; 1200 ppm in water): about 67
- initial sweetness attributes versus the same concentration of Reb A ([3]; 1200 ppm in water, FIG. 1): significantly less astringency, bitterness and numbing
- initial sweetness perception ([3]; 1200 ppm in water): about 108
- initial bitterness perception ([3]; 1200 ppm in water): about 18
- relative sweet properties (continuum regular sweet to artificial sweet-like) versus same concentration of Reb A ([3]; 1200 ppm in water, FIG. 9): behaved more like sucrose
- numerical value of the bitterness perception versus Reb A ([3]; all concentrations in water): significantly lower
- change in sweetness perception with an increase in concentration ([3]; in water, 360 to 1200 ppm): significant increase in sweetness perception
- increase in bitterness perception with an increase in concentration, versus Reb A ([3]; in water, 360 to 1200 ppm): substantially lower
- licorice attribute, 606 ppm Reb D versus 1200 ppm Reb D ([3]; in water, FIG. 6): lower value
- correlation to the sweetness perception attributes of sucrose, versus rebaudioside A ([3]; in water, FIG. 8): more highly correlated
- average bitterness in each of the three beverage bases versus Reb A ([4]; 360 ppm): lower average bitterness
- average sweetness in each of the three beverage bases versus Reb A ([4]; 360 ppm): greater average sweetness
- interaction between the sweetener and the three beverage bases (initial sweetness attribute plots) ([4]; 360 ppm (sucrose 5.4 brix), FIGS. 16-18): no significant interaction
- Reb D Compared to Reb A % Ratio, Bitterness [4, 6]: 37%
- Reb D Compared to Reb A % Ratio, Sweetness [4, 6]: 115%
- average bitterness in each of the three beverage bases versus Reb A ([4]; 606 ppm): lower average bitterness
- average sweetness in each of the three beverage bases versus Reb A ([4]; 606 ppm): greater average sweetness
- interaction between the sweetener and the three beverage bases (initial sweetness attribute plots) ([4]; 606 ppm (sucrose 8.5 brix), FIGS. 13-15): no significant interaction
- Reb D Compared to Reb A % Ratio, Bitterness [4, 7]: 30%
- Reb D Compared to Reb A % Ratio, Sweetness [4, 7]: 117%
- Reb D Compared to Reb A % Ratio, Bitterness [4, 8]: 40%
- Reb D Compared to Reb A % Ratio, Sweetness [4, 8]: 150%
- Bitterness [4, 9]: 18.1
- Sweetness [4, 9]: 63.4
- Bitterness [4, 10]: 14.1
- Sweetness [4, 10]: 73.9
- Bitterness [4, 11]: 17.4
- Sweetness [4, 11]: 105.5
- Bitterness [4, 12]: 7.7
- Sweetness [4, 12]: 60.6
- Bitterness [4, 13]: 9.8
- Sweetness [4, 13]: 74.3
- Bitterness [4, 14]: 10.7
- Sweetness [4, 14]: 58.9
- Bitterness [4, 15]: 7.4
- Sweetness [4, 15]: 85.1
- Bitterness ([4]; Water, 360 ppm): 7.7
- Sweetness ([4]; Water, 360 ppm): 60.6
- Bitterness ([4]; Water, 606 ppm): 9.8
- Sweetness ([4]; Water, 606 ppm): 74.3
- sweetness (value reported by Kinghorn) [5]: 221
- relative quality of taste, as compared to stevioside ([5]; stevioside is rated 0): +3
